Laboratory results reported in patent US4758558A, “N-(substituted)-[7-(2-cyanoacetamido)cephalosporanic]amide derivatives having antibiotic utility” (priority 1982, dated 1988).

Tests used:
Escherichia coli = assay: Effect on intestinal bacteria: number of Escherichia coli in feces; assay type: in vivo, ICR mice; details: after oral administration for 2 days, 500 mg/kg/day, female ICR mice; before: 6.4
Description: (b) Effect on the intestinal bacterial colonies:
[…] Each portion of the two kinds of the feces was cultured at 25° C. or 37° C. in a variety of culture medium for one to five days to see the state of Escherichia coli, Pseudomonas aeruginosa, a Streptococcus species, a Lactobacillus species, Lactobacillus bifidus and a Bacteroides species in the culture medium.
(§1) Effects of the present compound on intestinal bacteria
Each of the two fecal […] by weight of an anaerobic diluent (a phosphoric acid buffer solution) and was ground in a mortar, and 0.1 ml of the thus ground material was smeared on each of the following culture media for the following bacteria, and the thus inoculated culture media were incubated under the following conditions. Thereafter, the number of the following bacteria in each of the thus cultured media was determined.

Lactobacillus bifidus = assay: Effect on intestinal bacteria: number of Lactobacillus bifidus in feces; assay type: in vivo, ICR mice; details: mouse, in vivo, po, 500 mg/kg/day
Description: (§2) (b) Effect on the intestinal bacterial colonies: […]
as §1
(§3) Each of the present compounds respectively produced in Examples 1 to 18 was orally administered continuously for 2 days at a daily dose rate of 500 mg/kg body weight to each of five female ICR mice of each group after 6 weeks of their birth.
(§4) Each of the two fecal specimens respectively collected from each mouse before and after one day of the administration was diluted with 100 times by weight of an anaerobic diluent (a phosphoric acid buffer solution) and was ground in a mortar, and 0.1 ml of the thus ground material was smeared on each of the following culture media for the following bacteria, and the thus inoculated culture media were incubated under the following conditions. Thereafter, the number of the following bacteria in each of the thus cultured media was determined.
BS agar 37° C., 5 days, […]

[1] = tested on: a species of Streptococcus; assay: Effect on intestinal bacteria: number of a sp. of Streptococcus in feces; assay type: in vivo, ICR mice; details: mouse, in vivo, po, 500 mg/kg/day
Description: as §2, §1, §3, §4
a species of Streptococcus
TATAC agar 37° C., one day, […]

[2] = tested on: Staphylococcus aureus IAM 1011; assay: Antibacterial activity in vitro (MIC) against Staphylococcus aureus; assay type: cell-based; details: IAM1011, Mueller-Hinton agar, 18 to 24 hours, 37° C., read-out: MIC (minimum growth inhibiting concentration) against Staphylococcus aureus
Description: (§5) (c) Anti-bacterial activity (in vitro):
(§6) Minimum concentration of the present compound inhibiting the growth of the following bacteria was determined according to the standard procedures of Japan Society of Chemotherapy:
Staphylococcus aureus IAM 1011
(§7) Determination of the antibacterial activity of the present compound produced in Examples 1 to 18, respectively was carried out according to the standard procedures of Japan Society of Chemotherapy for finding MIC (the minimum concentration of a specimen to inhibit the growth of a species of bacteria).
(§8) A series of diluted solutions of each of the present compound were mixed with 9 times by weight of Mueller-Hinton's culture medium as the culture medium for determining the sensitivity of a bacterial species, and flat agar culture plates were prepared by using the thus obtained mixture.
(§9) Each of the liquids respectively containing one of the bacterial species shown in Table 2 was smeared onto each of the thus prepared flat agar culture plates with a platinum loop, in length of about 2 cm, and the thus treated plates were incubated for 18 to 24 hours at 37° C. Thereafter, by observing the growth state of each bacterial species on the cultured plates, the minimum concentration of each compound completely inhibiting the growth of each bacterial species was found.

[3] = tested on: Staphylococcus aureus IAM 1011; assay: Treatment of experimental infectious disease in mouse due to Staphylococcus aureus; assay type: in vivo, ddY SPE mice; details: oral, two times just after and 4 hours after inoculation; 2.3×10^8 cells i.p.
Source text: (§10) (e) Effectiveness in treating experimental infectious disease due to bacteria:
(§11) (Refer to Example 22 for the details of the test.) As the result, while all the twenty mice artificially infected with each of the two bacterial species and not-treated with any of the present compound died on the second day of inoculation, more than 40% of the twenty mice artificially infected with each of the two bacterial species and administered with each of the three present compounds were alive even after 7 days of inoculation.
(§12) Effectiveness of the present compound in treatment of an experimental infectious disease in mouse
(2) Disease due to infection of Staphylococcus aureus
(§13) Each mouse of the two groups (20 animals/group) of ddY SPE mice was inoculated with 2.3×10^8 cells of Staphylococcus aureus IAM 1011 intraperitoneally, and then, each mouse of the one of the two groups was administered orally with one of the present compounds, namely the compound produced in Example 5, 10 or 13, two times just after and 4 hours after the inoculation, while the 20 mice of the other group were not administered.

[4] = tested on: Escherichia coli IFO 12734; assay: Treatment of experimental infectious disease in mouse due to Escherichia coli; assay type: in vivo, ddY SPE mice; details: oral, two times just after and 4 hours after inoculation; 1.4×10^8 cells i.p.
Source text: as §10, §11, §12
(1) Disease due to infection of Escherichia coli
as §13, with “1.4×10^8” for “2.3×10^8”, “Escherichia coli IFO 12734” for “Staphylococcus aureus IAM 1011”

a species of Bacteroides = assay: Effect on intestinal bacteria: number of a sp. of Bacteroides in feces; assay type: in vivo, ICR mice; details: mouse, in vivo, po, 500 mg/kg/day
Description: as §2, §1, §3, §4
a species of Bacteroides
NBGT agar 37° C., 5 days, […]

[5] = tested on: Escherichia coli IFO 12734; assay: Antibacterial activity in vitro (MIC) against Escherichia coli; assay type: cell-based; details: IFO12734, Mueller-Hinton agar, 18 to 24 hours, 37° C., read-out: MIC (minimum growth inhibiting concentration) against Escherichia coli
Description: as §5, §6
Escherichia coli IFO 12734 and
as §7, §8, §9

[6] = tested on: a species of Lactobacillus; assay: Effect on intestinal bacteria: number of a sp. of Lactobacillus in feces; assay type: in vivo, ICR mice; details: mouse, in vivo, po, 500 mg/kg/day
Description: as §2, §1, §3, §4
a species of Lactobacillus
LBS agar 37° C., 5 days, […]

Pseudomonas aeruginosa = assay: Effect on intestinal bacteria: number of Pseudomonas aeruginosa in feces; assay type: in vivo, ICR mice; details: mouse, in vivo, po, 500 mg/kg/day
Description: as §1, §3, §4
NAC agar 37° C., one day, […]

Row | Structure (SMILES) | Number of Escherichia coli after the administration (Escherichia coli) | Number of Lactobacillus bifidus after the administration (Lactobacillus bifidus) | Number of a sp. of Streptococcus after the administration [1] | MIC [2] [µg/mL] | mice alive on the 7th day of inoculation (Staphylococcus aureus infection) [3] | mice alive on the 7th day of inoculation (Escherichia coli infection) [4] | Number of a sp. of Bacterioides after the administration (a species of Bacteroides) | MIC [5] [µg/mL] | Number of a sp. of Lactobacillus after the administration [6] | Number of Pseudomonas aeruginosa after the administration (Pseudomonas aeruginosa)
1 | COC(=O)CNC(=O)c1ccc(NC(=O)C2=C(C)CSC3C(NC(=O)[C@H](N)c4ccccc4)C(=O)N23)cc1 (stereo partly drawn) [Example 5, N-(4-carbomethoxymethylcarbamoylphenyl)-[7-(D-alpha-aminophenylacetamido)desacetoxycephalosporanic]amide] | 6.5 Log10 (number of bacteria/g feces) | 8.4 Log10 (number of bacteria/g feces) | 6.7 Log10 (number of bacteria/g feces) | ≥ 100 | more than 65% | more than 60% | 8.4 Log10 (number of bacteria/g feces) | ≥ 100 | 8.9 Log10 (number of bacteria/g feces) | < 3.0 Log10 (number of bacteria/g feces)
2 | CC(=O)OCC1=C(C(=O)Nc2ccc(C)cc2)N2C(=O)C(NC(=O)CC#N)C2SC1 (centres unmarked) [Example 10, N-(4-methylphenyl)-[7-(2-cyanoacetamido)caphalosporanic]amide] | 6.8 Log10 (number of bacteria/g feces) | 8.2 Log10 (number of bacteria/g feces) | 6.8 Log10 (number of bacteria/g feces) | ≥ 100 | more than 85% | more than 80% | 8.9 Log10 (number of bacteria/g feces) | ≥ 100 | 9.0 Log10 (number of bacteria/g feces) | < 3.0 Log10 (number of bacteria/g feces)
3 | COC(=O)c1ccc(NC(=O)C2=C(CSc3nnc(C)s3)CSC3C(NC(=O)Cn4cnnn4)C(=O)N23)cc1 (centres unmarked) [Example 13, N-(4-carbomethoxyphenyl)-{7-(1-1H-tetrazolylacetamido)-3-[2-(5-methyl-1,3,4-thiadiazolyl)thiomethyl]-3-cephem-4-carboxylic}amide] | 6.4 Log10 (number of bacteria/g feces) | 8.4 Log10 (number of bacteria/g feces) | 6.6 Log10 (number of bacteria/g feces) | ≥ 12.5 | more than 60% | more than 80% | 8.7 Log10 (number of bacteria/g feces) | ≥ 100 | 9.0 Log10 (number of bacteria/g feces) | < 3.0 Log10 (number of bacteria/g feces)
4 | COC(=O)CNC(=O)c1ccc(NC(=O)C2=C(CSc3nnc(C)s3)CSC3C(NC(=O)Cn4cnnn4)C(=O)N23)cc1 (centres unmarked) [Example 15, N-(4-carbomethoxymethylcarbamoylphenyl)-{7-(1-1H-tetrazolylacetamido)-3-[2-(5-methyl-1,3,4-thiadiazolyl)thiomethyl]-3-cephem-4-carboxylic}amide] | 6.5 Log10 (number of bacteria/g feces) | 8.2 Log10 (number of bacteria/g feces) | 6.8 Log10 (number of bacteria/g feces) | ≥ 12.5 | – | – | 8.2 Log10 (number of bacteria/g feces) | ≥ 100 | 9.1 Log10 (number of bacteria/g feces) | < 3.0 Log10 (number of bacteria/g feces)
